33 molecules from patent publication US8791102B2, “Acetanilide sphingosine-1-phosphate receptor antagonists” (Exelixis, Inc., priority 2008, dated 2014) can be followed below.

The target in this test is T1, human S1P1 receptors (Homo sapiens, UniProt P21453).
T1 construct: host or cells: HEK293
The test can be described thus: S1P1R antagonist assay (fluorescent membrane potential dye, cAMP readout). The format is cell-based. The note with it: HEK293 cells expressing human S1P1 receptors and CNG channel; 500 nM NECA; S1P1R agonist 10 nM; 90 minutes; read-out: EC50 or IC50 value.

T1 sequence (P21453 whole entry): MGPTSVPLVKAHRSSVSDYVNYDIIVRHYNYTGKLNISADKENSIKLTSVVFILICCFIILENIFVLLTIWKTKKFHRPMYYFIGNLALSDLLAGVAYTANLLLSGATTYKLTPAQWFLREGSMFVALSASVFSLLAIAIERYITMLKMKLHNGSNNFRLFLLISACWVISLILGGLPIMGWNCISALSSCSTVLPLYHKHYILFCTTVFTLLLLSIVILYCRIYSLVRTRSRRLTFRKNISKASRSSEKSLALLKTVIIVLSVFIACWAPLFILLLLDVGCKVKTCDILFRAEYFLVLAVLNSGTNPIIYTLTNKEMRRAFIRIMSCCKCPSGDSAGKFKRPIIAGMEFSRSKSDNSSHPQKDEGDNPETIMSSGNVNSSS

Turning to `O=C(NC(COCc1ccccc1)C(=O)Nc1ccc(Oc2ccccc2)cc1)C1CC(=O)N(Cc2ccc(Cl)cc2)C1` (stereo not drawn) [Compound 29, N-(3-(benzyloxy)-1-oxo-1-(4-phenoxyphenylamino)propan-2-yl)-1-(4-chlorobenzyl)-5-oxopyrrolidine-3-carboxamide], the IC50 was above 1000 nM.

Consider `COc1cccc(N2CCN(CC(=O)N[C@@H](COCc3ccccc3)C(=O)Nc3ccc(Oc4ccc(F)cc4)cc3)CC2)c1` [Compound 42, (S)-3-(benzyloxy)-N-(4-(4-fluorophenoxy)phenyl)-2-(2-(4-(3-methoxyphenyl)piperazin-1-yl)acetamido)propanamide], for which the 50% inhibitory concentration (IC50) is above 1000 nM.

Take `O=C(CN1CCN(c2ccccc2F)CC1)N[C@@H](COCc1ccccc1)C(=O)Nc1ccc(Oc2ccc(F)cc2)cc1` [Compound 127, (S)-3-(benzyloxy)-N-(4-(4-fluorophenoxy)phenyl)-2-(2-(4-(2-fluorophenyl)piperazin-1-yl)acetamido)propanamide]: the IC50 was above 1000 nM.

`O=C(COc1ccc(F)cc1)NC(COCc1ccccc1)C(=O)Nc1ccc(Oc2ccccc2)cc1` (stereo not drawn) [Compound 368, N-(2-oxo-1-{[(phenylmethyl)oxy]methyl}-2-{[4-(phenyloxy)phenyl]amino}ethyl)-2-(4-fluorophenoxy)acetamide]: the IC50 is above 1000 nM.

Take `O=C(Nc1ccc(Oc2ccc(F)cc2)cc1)[C@@H]1C[C@@H](Cc2ccccc2)CN1C(=O)C1CCCO1` (stereo partly drawn) [Compound 92, (2S,4R)-4-benzyl-N-(4-(4-fluorophenoxy)phenyl)-1-(tetrahydrofuran-2-carbonyl)pyrrolidine-2-carboxamide]: the IC50 is at most 300 nM.

Regarding `O=C(Cc1cnc[nH]1)N[C@@H](Cc1ccccc1)C(=O)Nc1ccc(Oc2ccc(Cl)cc2)cc1` [Compound 204, (S)-2-(2-(1H-imidazol-5-yl)acetamido)-N-(4-(4-chlorophenoxy)phenyl)-3-phenylpropanamide], the IC50 was 300 to 1000 nM.

In the case of `O=C(Nc1ccc(Oc2ccc(F)cc2)cc1)[C@@H]1C[C@@H](Cc2ccc(Cl)s2)CN1C(=O)Cn1ccnn1` [Compound 65, (2S,4S)-1-(2-(1H-1,2,3-triazol-1-yl)acetyl)-4-((5-chlorothien-2-yl)methyl)-N-(4-(4-fluorophenoxy)phenyl)pyrrolidine-2-carboxamide], the IC50 is at most 300 nM.

`O=C(Cc1cccc2ccccc12)NC(COCc1ccccc1)C(=O)Nc1ccc(Oc2ccccc2)cc1` (stereo not drawn) [Compound 375, N-(2-oxo-1-{[(phenylmethyl)oxy]methyl}-2-{[4-(phenyloxy)phenyl]amino}ethyl)-2-(naphthalen-1-yl)acetamide]: the IC50 is above 1000 nM.

Take `CCOCC(=O)N1C[C@H](Cc2ccccc2)C[C@H]1C(=O)Nc1ccc(Oc2ccc(F)cc2)cc1` [Compound 121, (2S,4R)-4-benzyl-1-(2-ethoxyacetyl)-N-(4-(4-fluorophenoxy)phenyl)pyrrolidine-2-carboxamide]: the IC50 was at most 300 nM.

As for `O=C(Nc1ccc(Oc2ccc(F)cc2)cc1)[C@@H]1C[C@@H](c2ccccc2)CN1C(=O)Cn1nccn1` [Compound 77, (2S,4S)-1-(2-(2H-1,2,3-triazol-2-yl)acetyl)-N-(4-(4-fluorophenoxy)phenyl)-4-phenylpyrrolidine-2-carboxamide], the IC50 lay within 300 to 1000 nM.

As for `Cc1noc(C)c1NC(=O)N[C@@H](COCc1ccccc1)C(=O)Nc1ccc(Oc2ccc(F)cc2)cc1` [Compound 172, (S)-2-(3-(3,5-dimethylisoxazol-4-yl)ureido)-3-benzyloxy-N-(4-(4-fluorophenoxy)phenyl)propanamide], the IC50 is at most 300 nM.

In the case of `Cc1nc(CC(=O)N[C@@H](COCc2ccccc2)C(=O)Nc2ccc(Oc3ccc(F)cc3)cc2)c[nH]1` [Compound 162, (S)-3-(benzyloxy)-N-(4-(4-fluorophenoxy)phenyl)-2-(2-(2-methyl-1H-imidazol-4-yl)acetamido)propanamide], the IC50 was at most 300 nM.

Consider `Cc1ccc(CC(=O)NC(COCc2ccccc2)C(=O)Nc2ccc(Oc3ccccc3)cc2)cc1` (stereo not drawn) [Compound 372, N-(2-oxo-1-{[(phenylmethyl)oxy]methyl}-2-{[4-(phenyloxy)phenyl]amino}ethyl)-2-p-tolylacetamide], for which the IC50 was above 1000 nM.

On to `CC(=O)N[C@@H](COCc1ccc(F)cc1)C(=O)Nc1ccc(Oc2ccc(F)cc2)cc1` [Compound 164, (S)-2-acetamido-3-(4-fluorobenzyloxy)-N-(4-(4-fluorophenoxy)phenyl)propanamide], for which the IC50 was at most 300 nM.

With `O=C(Nc1ccc(Oc2ccc(F)cc2)cc1)[C@@H]1CN(Cc2ccccc2)CCN1C(=O)Cn1cncn1` [Compound 261, (S)-1-(2-(1H-1,2,4-triazol-1-yl)acetyl)-4-benzyl-N-(4-(4-fluorophenoxy)phenyl)piperazine-2-carboxamide], the IC50 fell in the range of 300 to 1000 nM.

In the case of `O=C(CN1CCN(CC2CCCO2)CC1)N[C@@H](COCc1ccccc1)C(=O)Nc1ccc(Oc2ccc(F)cc2)cc1` (stereo partly drawn) [Compound 110, (2S)-3-(benzyloxy)-N-(4-(4-fluorophenoxy)phenyl)-2-(2-(4-((tetrahydrofuran-2-yl)methyl)piperazin-1-yl)acetamido)propanamide], the IC50 was above 1000 nM.

As for `O=C(Nc1ccc(Oc2ccc(F)cc2)cc1)[C@@H]1C[C@@H](Cc2c(F)cc(F)cc2F)CN1C(=O)Cn1nccn1` [Compound 169, (2S,4R)-1-(2-(2H-1,2,3-triazol-2-yl)acetyl)-N-(4-(4-fluorophenoxy)phenyl)-4-(2,4,6-trifluorobenzyl)pyrrolidine-2-carboxamide], the IC50 was at most 300 nM.

On to `O=C(NC(COCc1ccccc1)C(=O)Nc1ccc(Oc2ccccc2)cc1)c1cccs1` (stereo not drawn) [Compound 292, N-(2-oxo-1-{[(phenylmethyl)oxy]methyl}-2-{[4-(phenyloxy)phenyl]amino}ethyl)thiophene-2-carboxamide], for which the IC50 was above 1000 nM.

For the molecule `O=C(Nc1ccc(Oc2ccccc2)cc1)C(COCc1ccccc1)NC(=O)[C@H]1CCCO1` (stereo partly drawn) [Compound 23, (2R)—N-(3-(benzyloxy)-1-oxo-1-(4-phenoxyphenylamino)propan-2-yl)tetrahydrofuran-2-carboxamide], the IC50 was above 1000 nM.

On to `O=C(Cn1cncn1)N[C@@H](COCc1ccccc1)C(=O)Nc1ccc(Sc2ccc(F)cc2)cc1` [Compound 178, (S)-2-(2-(1H-1,2,4-triazol-1-yl)acetamido)-3-(benzyloxy)-N-(4-(4-fluorophenylthio)phenyl)propanamide], for which the IC50 was at most 300 nM.

With `CC/C=C/CC(=O)N[C@@H](COCc1ccccc1)C(=O)Nc1ccc(Oc2ccc(F)cc2)cc1` [Compound 232, (S,E)-N-(3-(benzyloxy)-1-(4-(4-fluorophenoxy)phenylamino)-1-oxopropan-2-yl)hex-3-enamide], the IC50 was above 1000 nM.

In the case of `O=C(NC(COCc1ccccc1)C(=O)Nc1ccc(Oc2ccccc2)cc1)C1CC1` (stereo not drawn) [Compound 277, N-(2-oxo-1-{[(phenylmethyl)oxy]methyl}-2-{[4-(phenyloxy)phenyl]amino}ethyl)cyclopropylamide], the IC50 is at most 300 nM.

As for `CC/C=C/CC(=O)NC(COCc1ccccc1)C(=O)Nc1ccc(Oc2ccccc2)cc1` (stereo not drawn) [Compound 327], the half-inhibitory concentration (IC50) lay in the range of 300 to 1000 nM.

For `CS(=O)(=O)CC(=O)N1C[C@H](Cc2ccccc2)C[C@H]1C(=O)Nc1ccc(Oc2ccc(F)cc2)cc1` [Compound 87, (2S,4R)-4-benzyl-N-(4-(4-fluorophenoxy)phenyl)-1-(2-(methylsulfonyl)acetyl)pyrrolidine-2-carboxamide], the IC50 is at most 300 nM.

With `O=C(Cc1cnc[nH]1)N[C@@H](COCc1ccccc1)C(=O)Nc1ccc(Oc2ccccc2)cc1` [Compound 143, (S)-2-(2-(1H-imidazol-5-yl)acetamido)-3-benzyloxy-N-(4-phenoxyphenyl)propanamide], the IC50 was at most 300 nM.

As for `O=C(Nc1ccc(Oc2ccc(F)cc2)cc1)[C@@H]1C[C@@H](N2Cc3ccccc3C2)CN1C(=O)Cn1cncn1` [Compound 260, (2S,4R)-1-(2-(1H-1,2,4-triazol-1-yl)acetyl)-N-(4-(4-fluorophenoxy)phenyl)-4-(isoindolin-2-yl)pyrrolidine-2-carboxamide], the IC50 was 300 to 1000 nM.

In the case of `O=C(NC(COCc1ccccc1)C(=O)Nc1ccc(Oc2ccccc2)cc1)c1ccsc1` (stereo not drawn) [Compound 389, N-(2-oxo-1-{[(phenylmethyl)oxy]methyl}-2-{[4-(phenyloxy)phenyl]amino}ethyl)thiophene-3-carboxamide], the IC50 lay in the range of 300 to 1000 nM.

Take `O=C(NC(COCc1ccccc1)C(=O)Nc1ccc(Oc2ccccc2)cc1)c1ccccc1Cl` (stereo not drawn) [Compound 274, 2-chloro-N-(2-oxo-1-{[(phenylmethyl)oxy]methyl}-2-{[4-(phenyloxy)phenyl]amino}ethyl)benzamide]: the half-inhibitory concentration (IC50) is above 1000 nM.

With `C[C@@H](C(=O)NC(COCc1ccccc1)C(=O)Nc1ccc(Oc2ccccc2)cc1)c1ccccc1` (stereo partly drawn) [Compound 354, N-(2-oxo-1-{[(phenylmethyl)oxy]methyl}-2-{[4-(phenyloxy)phenyl]amino}ethyl)-2R-phenylpropanamide], the IC50 was in the range of 300 to 1000 nM.

In the case of `O=C(CN1CCC2CCCCC2C1)N[C@@H](COCc1ccccc1)C(=O)Nc1ccc(Oc2ccc(F)cc2)cc1` (stereo partly drawn) [Compound 222, (2S)-3-(benzyloxy)-N-(4-(4-fluorophenoxy)phenyl)-2-(2-(octahydroisoquinolin-2(1H)-yl)acetamido)propanamide], the IC50 fell in the range of 300 to 1000 nM.

With `CC1CCCN1CC(=O)N[C@@H](COCc1ccccc1)C(=O)Nc1ccc(Oc2ccc(F)cc2)cc1` (stereo partly drawn) [Compound 63, (2S)-3-(benzyloxy)-N-(4-(4-fluorophenoxy)phenyl)-2-(2-(2-methylpyrrolidin-1-yl)acetamido)propanamide], the IC50 is above 1000 nM.

On to `CN(C)CCC(=O)N[C@@H](COCc1ccccc1)C(=O)Nc1ccc(Oc2ccc(Cl)cc2)cc1` [Compound 209, (S)-3-(benzyloxy)-N-(4-(4-chlorophenoxy)phenyl)-2-(3-(dimethylamino)propanamido)propanamide], for which the IC50 was in the range of 300 to 1000 nM.

For `O=C(CNCCc1c[nH]cn1)N[C@@H](COCc1ccccc1)C(=O)Nc1ccc(Oc2ccc(F)cc2)cc1` [Compound 216, (S)-2-(2-(2-(1H-imidazol-4-yl)ethylamino)acetamido)-3-(benzyloxy)-N-(4-(4-fluorophenoxy)phenyl)propanamide], the IC50 was 300 to 1000 nM.
